Test results: US9486455B2, “Compounds for modulating TRPV3 function” (HYDRA BIOSCIENCES, INC., priority 2007, dated 2016)
Where two headings read alike, the source gives them in different places.

Columns and labels:
human (h) TRPV3 = molecular target: T1, human (h) TRPV3 (Homo sapiens, UniProt Q8NET8); experiment: Whole-cell patch clamp, human TRPV3-mediated currents; format: cell-based
T1 construct: expressed in transfected cells; host or cells: HEK293/TREx, tetracycline-induced
T1 sequence (Q8NET8 1-790): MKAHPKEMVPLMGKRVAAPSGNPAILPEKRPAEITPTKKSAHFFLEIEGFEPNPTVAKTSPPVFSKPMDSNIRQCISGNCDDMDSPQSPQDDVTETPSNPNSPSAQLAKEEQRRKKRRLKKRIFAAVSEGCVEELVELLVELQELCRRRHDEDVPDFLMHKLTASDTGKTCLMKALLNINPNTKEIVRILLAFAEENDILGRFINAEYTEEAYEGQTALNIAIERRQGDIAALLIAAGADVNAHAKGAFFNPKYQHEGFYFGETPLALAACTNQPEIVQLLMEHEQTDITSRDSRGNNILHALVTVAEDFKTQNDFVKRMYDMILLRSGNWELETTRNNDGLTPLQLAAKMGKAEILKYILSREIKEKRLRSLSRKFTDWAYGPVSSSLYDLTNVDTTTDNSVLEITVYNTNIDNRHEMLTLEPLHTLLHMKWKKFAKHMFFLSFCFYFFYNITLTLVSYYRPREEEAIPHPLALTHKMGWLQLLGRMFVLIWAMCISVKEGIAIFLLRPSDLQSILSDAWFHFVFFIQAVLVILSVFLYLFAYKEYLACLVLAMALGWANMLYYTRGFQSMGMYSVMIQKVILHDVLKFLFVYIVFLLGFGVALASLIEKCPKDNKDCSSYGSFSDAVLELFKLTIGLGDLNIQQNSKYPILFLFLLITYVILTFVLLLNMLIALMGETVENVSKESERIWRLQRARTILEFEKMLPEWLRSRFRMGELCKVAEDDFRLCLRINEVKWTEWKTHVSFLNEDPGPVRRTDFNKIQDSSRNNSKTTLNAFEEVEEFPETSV
Text: (§1) Whole-cell patch clamp experiments permit the detection of currents through the TRPV3 channel in the cell line described above. A glass electrode is brought into contact with a single cell and the membrane is then ruptured, permitting control of the voltage of the cell membrane and measurement of currents flowing across the membrane using the amplifier attached to the electrode. A perfusion system permits control of the extracellular solution, including the addition of blockers and activators of the current. The current can be activated by heating this solution to 28° C. or warmer or by addition of 20 μM 2-APB to the solution.
(§2) TRPV3 cells were induced 20-48 hours, removed from growth plates, and replated at low density (to attain good single-cell physical separation) on glass coverslips for measurement. In some cases, cells were grown in low density overnight on glass coverslips. Patch clamp recordings were made in the whole-cell mode with a holding potential of −40 mV. Every 5 seconds, a voltage ramp was applied from −120 to +100 mV, 400 ms in duration. Currents elicited were quantified at −80 mV and +80 mV. The internal solution consisted of 140 mM cesium aspartate, 10 mM EGTA, 2.27 mM MgCl2, 1.91 mM CaCl2 and 10 mM HEPES, pH to 7.2 with KOH; with 50 nM calculated free Ca^2+. External solution was Ringer's solution described above. Upon addition of 2-APB or upon heating of the extracellular solution as described above, TRPV3 current was induced only in TRPV3-expressing cells and not in parental HEK293 TREx cells. […] Removal of the stimulus caused most of the current to go away, and inhibitor addition could still inhibit this current. […]
(§3) P1 refers to the Phase 1 current for human (h) and rat (r) TRPV3, and P2 refers to the Phase 2 current for human (h) and rat (r) TRPV3.

rat (r) TRPV3 = molecular target: T2, rat (r) TRPV3 (Rattus norvegicus, UniProt Q4QYD9); experiment: Whole-cell patch clamp, rat TRPV3-mediated currents; format: cell-based
T2 construct: expressed in transfected cells
T2 sequence (Q4QYD9 1-791): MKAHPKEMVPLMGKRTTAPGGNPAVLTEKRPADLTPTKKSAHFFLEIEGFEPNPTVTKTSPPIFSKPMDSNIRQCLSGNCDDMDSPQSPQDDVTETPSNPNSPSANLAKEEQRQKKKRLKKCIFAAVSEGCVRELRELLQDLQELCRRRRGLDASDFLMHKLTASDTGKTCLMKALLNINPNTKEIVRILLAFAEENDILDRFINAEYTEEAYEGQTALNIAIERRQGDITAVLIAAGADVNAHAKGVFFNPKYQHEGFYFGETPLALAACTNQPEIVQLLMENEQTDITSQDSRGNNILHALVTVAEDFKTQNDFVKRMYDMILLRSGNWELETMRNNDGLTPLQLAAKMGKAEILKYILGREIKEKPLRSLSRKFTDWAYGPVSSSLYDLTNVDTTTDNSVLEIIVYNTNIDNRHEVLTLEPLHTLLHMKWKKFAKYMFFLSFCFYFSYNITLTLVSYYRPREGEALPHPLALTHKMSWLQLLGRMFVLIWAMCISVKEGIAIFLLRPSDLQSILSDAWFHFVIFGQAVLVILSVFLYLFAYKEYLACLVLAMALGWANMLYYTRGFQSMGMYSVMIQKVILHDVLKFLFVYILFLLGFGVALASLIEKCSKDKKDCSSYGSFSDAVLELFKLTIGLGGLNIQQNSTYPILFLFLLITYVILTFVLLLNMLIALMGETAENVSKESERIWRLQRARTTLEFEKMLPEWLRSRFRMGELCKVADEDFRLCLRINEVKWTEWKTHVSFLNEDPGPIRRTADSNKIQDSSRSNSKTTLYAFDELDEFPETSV
Text: as §1, §2, §3

[1] = Phase 1 inward current, read-out: P1 In (h)
[2] = Phase 2 inward current, read-out: P2 In (h)
[3] = Phase 1 outward current, read-out: P1 Out (h)
[4] = Phase 2 outward current, read-out: P2 Out (h)
[5] = Phase 1 inward current, read-out: P1 In (r)
[6] = Phase 1 outward current, read-out: P1 Out (r)
[7] = Phase 2 inward current, read-out: P2 In (r)
[8] = Phase 2 outward current, read-out: P2 Out (r)
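Note: compounds tested at concentrations up to 30 µM.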

Compound	IC50 (human (h) TRPV3; [1]) [nM]	IC50 (human (h) TRPV3; [3]) [nM]	IC50 (human (h) TRPV3; [4]) [nM]	IC50 (rat (r) TRPV3; [5]) [nM]	IC50 (rat (r) TRPV3; [6]) [nM]	IC50 (human (h) TRPV3; [2]) [nM]	IC50 (rat (r) TRPV3; [7]) [nM]	IC50 (rat (r) TRPV3; [8]) [nM]
COc1cccc(/C=C/c2nc3ccccc3c(=O)n2-c2c(C)cc(OCCO)cc2C)c1O [Compound 1]	≤ 1000					≤ 1000		
COc1cccc(/C=C(\C)c2nc3ccccc3c(=O)n2-c2ccccc2C)c1O [Compound 2]	≤ 5000					≤ 5000		
COc1cccc(/C=C/c2nc3ccccc3c(=O)n2-c2c(C)cc(OCCN(C)C)cc2C)c1O [Compound 3]	≤ 10000					≤ 5000		
Cc1ccccc1-n1c(-c2ccoc2)nc2ccccc2c1=O [Compound 4]	≤ 10000					≤ 10000		
Cc1ccccc1-n1c(/C=C/c2nnn[nH]2)nc2ccccc2c1=O [Compound 5]	> 10000					> 10000		
Cc1cccc(C)c1-n1c(/C=C/c2cc(OC(F)(F)F)ccc2O)nc2cnccc2c1=O [Compound 21]	≤ 10000	≤ 10000						
Cc1cccc(C)c1-n1c(/C=C/c2cc(Cl)cnc2O)nc2cnccc2c1=O [Compound 22]	≤ 10000	≤ 10000						
COc1cccc(/C=C/c2nc3ccccc3c(=O)n2-c2c(C)ccnc2C)c1O [Compound 32]	≤ 500	≤ 500	≤ 500	≤ 1000	≤ 1000	≤ 500	≤ 500	≤ 1000
COc1cccc(/C=C/c2nc3ccccc3c(=O)n2-c2c(C)cncc2C)c1O [Compound 33]	≤ 500	≤ 500	≤ 5000	≤ 500	≤ 500	≤ 500	≤ 500	≤ 500
COc1ccnc(/C=C/c2nc3ccccc3c(=O)n2-c2c(C)cccc2C)c1O [Compound 39]	≤ 10000	≤ 10000	≤ 10000			≤ 10000		
CCOc1nccc(/C=C/c2nc3ccccc3c(=O)n2-c2ccccc2C)c1O [Compound 43]	≤ 500	≤ 500	≤ 500	≤ 500	≤ 500	≤ 500	≤ 500	≤ 500
COc1cccc(NC(=O)Nc2nc3ccccc3c(=O)n2-c2c(C)cccc2C)c1O [Compound 46]	≤ 5000	≤ 5000						
COc1ccccc1-n1c(/C=C/c2cccc(OC)c2O)nc2ccccc2c1=O [Compound 52]	≤ 500	≤ 500	≤ 500			≤ 500		
COc1cccc(C=Cc2nc3ccccc3c(=O)n2-c2c(C)cccc2C)c1OP(=O)(O)O [Compound 53]	≤ 500	≤ 500	≤ 500			≤ 500		
COc1cccc(-n2c(/C=C/c3cccc(OC)c3O)nc3ccccc3c2=O)c1 [Compound 54]	≤ 500	≤ 500	≤ 500			≤ 500		

Further lines, with some results ahead:

IC50 (human (h) TRPV3; [1]) [nM]	IC50 (human (h) TRPV3; [3]) [nM]	IC50 (human (h) TRPV3; [4]) [nM]	IC50 (rat (r) TRPV3; [5]) [nM]	IC50 (rat (r) TRPV3; [6]) [nM]	Compound	IC50 (human (h) TRPV3; [2]) [nM]	IC50 (rat (r) TRPV3; [7]) [nM]	IC50 (rat (r) TRPV3; [8]) [nM]
≤ 10000	≤ 10000				Cc1cccc(C)c1-n1c(/C=C/c2cccc3cn[nH]c23)nc2cnccc2c1=O [Compound 10]			
≤ 500	≤ 500	≤ 500	≤ 500	≤ 500	Cc1cccc(C)c1-n1c(/C=C/c2cccc(OC(F)(F)F)c2O)nc2cnccc2c1=O [Compound 12]	≤ 500		
≤ 10000	≤ 10000				COc1ccccc1-n1c(/C=C/c2cccc(OC)c2O)nc2cnccc2c1=O [Compound 13]			
≤ 500	≤ 500	≤ 500	≤ 500	≤ 500	COc1cccc(/C=C/c2nc3cnccc3c(=O)n2-c2c(C)cccc2OC)c1O [Compound 14]	≤ 500	≤ 500	≤ 1000
≤ 500	≤ 500	≤ 500	≤ 500	≤ 500	COc1nccc(/C=C/c2nc3cnccc3c(=O)n2-c2c(C)cccc2C)c1O [Compound 15]	≤ 500	≤ 500	≤ 500
≤ 500	≤ 500	≤ 500	≤ 500	≤ 500	COc1cccc(/C=C/c2nc3cnccc3c(=O)n2-c2c(C)cccc2Cl)c1O [Compound 16]	≤ 500	≤ 500	≤ 500
≤ 10000	≤ 10000	≤ 10000			COc1cccc(-n2c(/C=C/c3cccc(OC)c3O)nc3cnccc3c2=O)c1C [Compound 17]	≤ 10000		
≤ 500	≤ 500	≤ 10000			CCOc1cccc(/C=C/c2nc3cnccc3c(=O)n2-c2c(F)cccc2F)c1O [Compound 18]	≤ 500		
≤ 5000	≤ 10000				Cc1cccc(C)c1-n1c(/C=C/c2cc(Cl)ccc2O)nc2cnccc2c1=O [Compound 20]			
≤ 10000	≤ 10000				Cc1ccc(O)c(/C=C/c2nc3cnccc3c(=O)n2-c2c(C)cccc2C)n1 [Compound 23]			
≤ 10000	≤ 10000				COc1cccc(/C=C/c2nc3cnccc3c(=O)n2-c2c(C)cccc2C)n1 [Compound 24]			
≤ 10000	≤ 5000				COc1cccc(/C=C/c2nc3cnccc3c(=O)n2-c2ccccc2C#N)c1O [Compound 25]			
≤ 10000	≤ 5000				COc1cc(/C=C/c2nc3cnccc3c(=O)n2-c2c(C)cccc2C)ccn1 [Compound 26]			
≤ 10000	≤ 10000				Cc1cccc(C)c1-n1c(/C=C/c2cnccc2O)nc2cnccc2c1=O [Compound 29]			
≤ 500	≤ 500	≤ 500	≤ 500	≤ 500	CCOc1cccc(C=Cc2nc3cnccc3c(=O)n2-c2ccccc2C)c1O [Compound 31]	≤ 500		
≤ 500	≤ 1000	≤ 1000			COc1cccc(/C=C/c2nc3ccccc3c(=O)n2-c2c(C)cccc2OCCO)c1O [Compound 48]			
≤ 500	≤ 500	≤ 500	≤ 500	≤ 500	Cc1cccc(C)c1-n1c(/C=C/c2cccc(OC(C)C)c2O)nc2ccccc2c1=O [Compound 51]	≤ 500		
